According to publication PMC10485003, “Antibiotic hyper-resistance in a class I aminoacyl-tRNA synthetase with altered active site signature motif” (Nature Communications, 2023):
Where “and” joins values, the source holds several entries; their conditions need not be identical. Equal values may be shown once.

Molecular target: T1, mut-GVHH PmIleRS2 (Priestia megaterium, UniProt A0A0B6AVD3, G56H/H54G)
T1 sequence (A0A0B6AVD3 1-1032 H54G/G56H): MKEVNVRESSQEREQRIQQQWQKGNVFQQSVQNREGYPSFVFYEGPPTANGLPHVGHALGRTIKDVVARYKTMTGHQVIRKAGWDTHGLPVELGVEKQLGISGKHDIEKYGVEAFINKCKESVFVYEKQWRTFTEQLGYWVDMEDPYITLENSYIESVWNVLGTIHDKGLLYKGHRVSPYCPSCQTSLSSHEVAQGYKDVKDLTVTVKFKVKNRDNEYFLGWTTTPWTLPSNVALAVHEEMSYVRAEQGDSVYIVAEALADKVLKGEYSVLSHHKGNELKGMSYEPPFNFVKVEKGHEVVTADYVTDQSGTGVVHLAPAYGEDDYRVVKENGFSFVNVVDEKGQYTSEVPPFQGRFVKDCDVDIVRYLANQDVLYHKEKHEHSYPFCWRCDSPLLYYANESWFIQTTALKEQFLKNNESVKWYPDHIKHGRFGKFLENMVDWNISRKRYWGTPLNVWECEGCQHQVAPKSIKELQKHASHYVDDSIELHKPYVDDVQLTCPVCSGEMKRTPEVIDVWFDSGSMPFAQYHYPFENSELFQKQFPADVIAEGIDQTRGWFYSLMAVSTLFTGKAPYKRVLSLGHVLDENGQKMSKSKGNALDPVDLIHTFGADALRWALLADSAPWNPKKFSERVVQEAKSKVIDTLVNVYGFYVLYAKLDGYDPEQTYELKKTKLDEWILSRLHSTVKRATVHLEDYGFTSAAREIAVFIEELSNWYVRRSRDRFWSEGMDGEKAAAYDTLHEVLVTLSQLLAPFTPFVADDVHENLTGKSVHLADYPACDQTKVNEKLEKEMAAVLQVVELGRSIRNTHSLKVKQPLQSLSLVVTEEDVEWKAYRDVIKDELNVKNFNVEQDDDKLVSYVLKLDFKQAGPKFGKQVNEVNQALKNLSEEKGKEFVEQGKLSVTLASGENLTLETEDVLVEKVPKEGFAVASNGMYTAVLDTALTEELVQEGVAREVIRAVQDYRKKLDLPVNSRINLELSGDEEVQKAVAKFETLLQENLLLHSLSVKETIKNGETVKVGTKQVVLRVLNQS
Assay: ATP-PPi exchange assay, mupirocin inhibition of amino acid activation
Type: biochemical, Priestia (Bacillus) megaterium
Experimental: L-Ile and ATP concentrations ranged from 1/10 KM to 10 KM values. When measuring the KI towards one of the substrates, the other was held in saturation (concentrations at least 10 KM). The aliquots of the reaction mixture (1–2.5 μl) were quenched in 2 volumes of 500 mM NaOAc pH = 4.5, 0.1% SDS, and formed ^32P-ATP was separated from the remaining ^32P-PPi by thin-layer chromatography on Polygram CEL 300 PEI UV254 TLC plates (Macherey-Nagel, cat: 801063) using 750 mM KH2PO4 pH=3.5, 4 M urea buffer. Visualization and quantification of the signals was performed using a Typhoon Phosphoimager 5 (General Electric) and accompanying ImageQuant™ TL software (SV: 10.2). The kinetic constants were determined using a global fit option of the competitive inhibition model of GraphPad Prism 6 software (SV: 6.01). All experiments were performed in triplicates. The kcat was determined by dividing the maximal velocity, VM, with the used enzyme concentration. […]
variable substrate (ATP or Ile) was varied in the range of 0.1 KM to 10 KM. The other substrate (Ile or ATP) was kept in excess at 5 to 10 KM. Data were globally fitted to the competitive inhibition model using GraphPad prism 6.01 for Windows software. The values represent the average value ± SD of three independent experiments. Source data are provided as a Source Data file.

C/C(=C\C(=O)OCCCCCCCCC(=O)O)C[C@@H]1OC[C@H](C[C@@H]2O[C@H]2[C@@H](C)[C@H](C)O)[C@@H](O)[C@H]1O [mupirocin]
vo (c (mupirocin) = 5.0 mM, c (Ile) 250.0 μM, Replica 3): 0.00839 mM/min | vo (c (mupirocin) = 5.0 mM, c (Ile) 500.0 μM, Replica 1): 0.01582 mM/min | vo (c (mupirocin) = 5.0 mM, c (Ile) 500.0 μM, Replica 2): 0.01771 mM/min | vo (c (mupirocin) = 5.0 mM, c (Ile) 500.0 μM, Replica 3): 0.01671 mM/min | vo (c (mupirocin) = 5.0 mM, c (Ile) 1000.0 μM, Replica 1): 0.02937 mM/min | vo (c (mupirocin) = 5.0 mM, c (Ile) 1000.0 μM, Replica 2): 0.03008 mM/min | vo (c (mupirocin) = 5.0 mM, c (Ile) 1000.0 μM, Replica 3): 0.02918 mM/min | vo (c (mupirocin) = 5.0 mM, c (Ile) 1500.0 μM, Replica 1): 0.03962 mM/min | vo (c (mupirocin) = 5.0 mM, c (Ile) 1500.0 μM, Replica 2): 0.03913 mM/min | vo (c (mupirocin) = 5.0 mM, c (Ile) 1500.0 μM, Replica 3): 0.04025 mM/min | vo (c (mupirocin) = 10.0 mM, c (Ile) 100.0 μM, Replica 1): 0.00192 mM/min | vo (c (mupirocin) = 10.0 mM, c (Ile) 100.0 μM, Replica 2): 0.00188 mM/min | vo (c (mupirocin) = 10.0 mM, c (Ile) 100.0 μM, Replica 3): 0.00205 mM/min | vo (c (mupirocin) = 10.0 mM, c (Ile) 250.0 μM, Replica 1): 0.00384 mM/min | vo (c (mupirocin) = 10.0 mM, c (Ile) 250.0 μM, Replica 2): 0.00477 mM/min | vo (c (mupirocin) = 10.0 mM, c (Ile) 250.0 μM, Replica 3): 0.00429 mM/min | vo (c (mupirocin) = 10.0 mM, c (Ile) 500.0 μM, Replica 1): 0.00975 mM/min | vo (c (mupirocin) = 10.0 mM, c (Ile) 500.0 μM, Replica 2): 0.01055 mM/min | vo (c (mupirocin) = 10.0 mM, c (Ile) 500.0 μM, Replica 3): 0.01023 mM/min | vo (c (mupirocin) = 10.0 mM, c (Ile) 1000.0 μM, Replica 1): 0.01549 mM/min | vo (c (mupirocin) = 10.0 mM, c (Ile) 1000.0 μM, Replica 2): 0.01681 mM/min | vo (c (mupirocin) = 10.0 mM, c (Ile) 1000.0 μM, Replica 3): 0.01726 mM/min | vo (c (mupirocin) = 10.0 mM, c (Ile) 1500.0 μM, Replica 1): 0.02248 mM/min | vo (c (mupirocin) = 10.0 mM, c (Ile) 1500.0 μM, Replica 2): 0.02398 mM/min | vo (c (mupirocin) = 10.0 mM, c (Ile) 1500.0 μM, Replica 3): 0.02428 mM/min | initial velocity vo (c(mupirocin) 0.5 mM, c(ATP) 0.5 mM): 0.00635 mM/min and 0.00811 mM/min | initial velocity vo (c(mupirocin) 0.5 mM, c(ATP) 1.0 mM): 0.01441 mM/min and 0.01486 mM/min and 0.01387 mM/min | initial velocity vo (c(mupirocin) 0.5 mM, c(ATP) 2.5 mM): 0.03283 mM/min and 0.03264 mM/min and 0.03523 mM/min | initial velocity vo (c(mupirocin) 0.5 mM, c(ATP) 5.0 mM): 0.05375 mM/min and 0.05359 mM/min and 0.05506 mM/min | initial velocity vo (c(mupirocin) 0.5 mM, c(ATP) 10.0 mM): 0.07349 mM/min and 0.07632 mM/min and 0.07609 mM/min | initial velocity vo (c(mupirocin) 0.5 mM, c(ATP) 20.0 mM): 0.09482 mM/min and 0.09569 mM/min and 0.09403 mM/min | initial velocity vo (c(mupirocin) 0.5 mM, c(Ile) 50.0 μM): 0.00742 mM/min and 0.00851 mM/min and 0.00786 mM/min | initial velocity vo (c(mupirocin) 1.0 mM, c(ATP) 0.5 mM): 0.00716 mM/min and 0.0055 mM/min and 0.00625 mM/min | initial velocity vo (c(mupirocin) 1.0 mM, c(ATP) 1.0 mM): 0.01194 mM/min and 0.01202 mM/min and 0.01221 mM/min | initial velocity vo (c(mupirocin) 1.0 mM, c(ATP) 2.5 mM): 0.0252 mM/min and 0.02429 mM/min and 0.02403 mM/min | initial velocity vo (c(mupirocin) 1.0 mM, c(ATP) 5.0 mM): 0.04205 mM/min and 0.0434 mM/min and 0.0426 mM/min | initial velocity vo (c(mupirocin) 1.0 mM, c(ATP) 10.0 mM): 0.06359 mM/min and 0.06579 mM/min and 0.06457 mM/min | initial velocity vo (c(mupirocin) 1.0 mM, c(ATP) 20.0 mM): 0.08534 mM/min and 0.08763 mM/min and 0.08559 mM/min | initial velocity vo (c(mupirocin) 1.0 mM, c(Ile) 50.0 μM): 0.00713 mM/min and 0.00706 mM/min and 0.00704 mM/min | initial velocity vo (c(mupirocin) 2.5 mM, c(ATP) 1.0 mM): 0.00558 mM/min and 0.0055 mM/min and 0.00551 mM/min | initial velocity vo (c(mupirocin) 2.5 mM, c(ATP) 2.5 mM): 0.01306 mM/min and 0.01742 mM/min and 0.01281 mM/min | initial velocity vo (c(mupirocin) 2.5 mM, c(ATP) 5.0 mM): 0.02499 mM/min and 0.026 mM/min and 0.02496 mM/min | initial velocity vo (c(mupirocin) 2.5 mM, c(ATP) 10.0 mM): 0.04221 mM/min and 0.04045 mM/min and 0.04296 mM/min | initial velocity vo (c(mupirocin) 2.5 mM, c(ATP) 20.0 mM): 0.05896 mM/min and 0.06416 mM/min and 0.05964 mM/min | initial velocity vo (c(mupirocin) 2.5 mM, c(Ile) 50.0 μM): 0.00279 mM/min and 0.00348 mM/min and 0.00209 mM/min | initial velocity vo (c(mupirocin) 5.0 mM, c(ATP) 0.5 mM): 0.00206 mM/min and 0.00219 mM/min and 0.0025 mM/min | initial velocity vo (c(mupirocin) 5.0 mM, c(ATP) 1.0 mM): 0.00362 mM/min and 0.00342 mM/min and 0.00337 mM/min | initial velocity vo (c(mupirocin) 5.0 mM, c(ATP) 2.5 mM): 0.00795 mM/min and 0.00842 mM/min and 0.00825 mM/min | initial velocity vo (c(mupirocin) 5.0 mM, c(ATP) 5.0 mM): 0.01509 mM/min and 0.0154 mM/min and 0.01576 mM/min | initial velocity vo (c(mupirocin) 5.0 mM, c(ATP) 10.0 mM): 0.02771 mM/min and 0.02665 mM/min and 0.0265 mM/min | initial velocity vo (c(mupirocin) 5.0 mM, c(ATP) 20.0 mM): 0.04308 mM/min and 0.04226 mM/min | initial velocity vo (c(mupirocin) 5.0 mM, c(Ile) 50.0 μM): 0.00223 mM/min and 0.00239 mM/min and 0.00197 mM/min | initial velocity vo (c(mupirocin) 10.0 mM, c(Ile) 50.0 μM): 0.00094 mM/min and 0.00075 mM/min and 0.00127 mM/min
